Read-outs that look alike come from different tables or passages of the source.
How the values were obtained:
[1] = test system: carrageenin-induced hind paw edema; test: Anti-inflammatory activity (carrageenin-induced hind paw edema in rats); format: in vivo, Male Wistar rats; settings: for inhibition in vivo at 20 mg/kg / inhibition in vivo at 40 mg/kg / inhibition in vivo at 80 mg/kg / inhibition in vivo at 160 mg/kg / inhibition in vivo at 0.2 mg/kg / inhibition in vivo at 0.4 mg/kg / inhibition in vivo at 0.8 mg/kg / inhibition in vivo at 1.6 mg/kg / inhibition in vivo at 3.2 mg/kg / inhibition in vivo at 1 mg/kg / inhibition in vivo at 4 mg/kg / inhibition in vivo at 5 mg/kg / inhibition in vivo at 2 mg/kg: Rattus norvegicus, po; for inhibition in vivo at 0.2 mg/kg: 0.2 mg/kg p.o.; for inhibition in vivo at 0.4 mg/kg: 0.4 mg/kg p.o.; for inhibition in vivo at 0.8 mg/kg: 0.8 mg/kg p.o.; for inhibition in vivo at 1.6 mg/kg: 1.6 mg/kg p.o.; for inhibition in vivo at 3.2 mg/kg: 3.2 mg/kg p.o.; for inhibition in vivo at 1 mg/kg: 1 mg/kg p.o.; for inhibition in vivo at 4 mg/kg: 4 mg/kg p.o.; for inhibition in vivo at 5 mg/kg: 5 mg/kg p.o.; for inhibition in vivo at 2 mg/kg: 2 mg/kg p.o.
Method: Anti-inflammatory activity (carrageenin-induced hind paw edema in rats)
The test was carried out in a similar manner as disclosed in Proc. Soc. Exptl.
Male Wistar rats, weighing 100-300 g, were used. A 1% aqueous carrageenin solution (0.1 ml) was administered subcutaneously into the hind foot pad of rats. Two and three hours after the carrageenin injection, the paw volume was measured and the swelling rate was calculated based on the paw volume before the carrageenin injection. The inhibitory rate was determined as compared with the average swelling rate of the control group to which only vehicle was administered. The test compounds were administered orally one hour before the carrageenin injection.

stomach ulcer = test: Gastrointestinal ulcerogenicity; format: in vivo, Male Wistar rats; design: key to Average score of stomach ulcer: ulcer score 1 to 4, 4 = most severe ulcer; settings: for Number of rats having a score of stomach ulcer of 2 or more/total number of rats used / Average score of stomach ulcer: after 6 hours; for Average score of stomach ulcer: score 1 to 4; for gastrointestinal ulcerogenicity compared with the known aspirin: in words, from Table 2
Method: Gastrointestinal ulcerogenicity
The test was carried out in a similar manner as disclosed in Arzneim. Forsch., 19, 36 (1969).
Male Wistar rats, weighing 130-180 g, were used. After the rats were fasted for 24 hours, the test compound was orally administered one time. After 6 hours, the rats were killed and the stomach was removed. […] The degree of stomach ulcer was scored from 1 to 4, wherein 4 is the most severe ulcer. In Table 2, there are shown the average score of stomach ulcer in each dose and also the ratio of the number of rats having a score of stomach ulcer of 2 or more to total number of rats used.

male Wistar rats = test: Acute lethal toxicity; format: in vivo; settings: from LD50, single oral administration
Method: (§1) The mortality was observed on the 7th day after single oral administration of test compounds in male Wistar rats, and the LD50 was calculated according to the method of Litchfield and Wilcoxon.

Acute lethal toxicity = format: in vivo; settings: rat, in vivo; single oral administration, mortality on the 7th day, Litchfield and Wilcoxon
Method: as §1

[2] = 2 h, read-out: Inhibitory rate, two hours after the carrageenin injection
[3] = 3 h, read-out: Inhibitory rate, three hours after the carrageenin injection
[4] = 2 h, two hours, read-out: Inhibitory rate, two hours after the carrageenin injection
[5] = 3 h, three hours, read-out: Inhibitory rate, three hours after the carrageenin injection

Row | Structure (SMILES) | Number of rats having a score of stomach ulcer of 2 or more/total number of rats used (stomach ulcer; 16 mg/kg p.o.) | Average score of stomach ulcer (stomach ulcer; 16 mg/kg p.o.) | Number of rats having a score of stomach ulcer of 2 or more/total number of rats used (stomach ulcer; 32 mg/kg p.o.) | Average score of stomach ulcer (stomach ulcer; 32 mg/kg p.o.) | Number of rats having a score of stomach ulcer of 2 or more/total number of rats used (stomach ulcer; 64 mg/kg p.o.) | Average score of stomach ulcer (stomach ulcer; 64 mg/kg p.o.) | inhibition in vivo at 5 mg/kg [1, 4] [%] | inhibition in vivo at 5 mg/kg [1, 5] [%] | gastrointestinal ulcerogenicity compared with the known aspirin (stomach ulcer) | inhibition in vivo at 2 mg/kg [1, 4] [%] | inhibition in vivo at 2 mg/kg [1, 5] [%] | also measured
1 | CC(=O)Oc1ccccc1C(=O)O [Compound 2, Aspirin, reference compound] | – | – | – | – | – | – | – | – | – | – | – | inhibition in vivo at 20 mg/kg [1, 2]: 14.1%; inhibition in vivo at 40 mg/kg [1, 2]: 22.9%; inhibition in vivo at 80 mg/kg [1, 2]: 30.8%; inhibition in vivo at 160 mg/kg [1, 2]: 35.1%; inhibition in vivo at 20 mg/kg [1, 3]: 9%; inhibition in vivo at 40 mg/kg [1, 3]: 21.2%; inhibition in vivo at 80 mg/kg [1, 3]: 25.9%; inhibition in vivo at 160 mg/kg [1, 3]: 30.9%; Number of rats having a score of stomach ulcer of 2 or more/total number of rats used (stomach ulcer; 20 mg/kg p.o.): 0/6; Average score of stomach ulcer (stomach ulcer; 20 mg/kg p.o.): 0.83; Number of rats having a score of stomach ulcer of 2 or more/total number of rats used (stomach ulcer; 40 mg/kg p.o.): 3/6; Average score of stomach ulcer (stomach ulcer; 40 mg/kg p.o.): 1.33; Number of rats having a score of stomach ulcer of 2 or more/total number of rats used (stomach ulcer; 60 mg/kg p.o.): 5/6; Average score of stomach ulcer (stomach ulcer; 60 mg/kg p.o.): 2.33; Number of rats having a score of stomach ulcer of 2 or more/total number of rats used (stomach ulcer; 80 mg/kg p.o.): 5/6; Average score of stomach ulcer (stomach ulcer; 80 mg/kg p.o.): 3.33; Number of rats having a score of stomach ulcer of 2 or more/total number of rats used (stomach ulcer; 160 mg/kg p.o.): 6/6; Average score of stomach ulcer (stomach ulcer; 160 mg/kg p.o.): 4.00
2 | CC(C(=O)O)c1ccc2c(c1)SCC1CCCCC1C2=O (stereo not shown) [F, 2-(6,6a,7,8,9,10,10a,11-Octahydro-11-oxodibenzo[b,e]thiepin-3-yl)propionicacid-A] | 2/6 | 1.00 | 2/6 | 1.00 | 6/9 | 1.67 | – | – | – | – | – | inhibition in vivo at 0.2 mg/kg [1, 4]: 8.6%; inhibition in vivo at 0.4 mg/kg [1, 4]: 14.9%; inhibition in vivo at 0.8 mg/kg [1, 4]: 20.5%; inhibition in vivo at 1.6 mg/kg [1, 4]: 28.4%; inhibition in vivo at 3.2 mg/kg [1, 4]: 36.4%; inhibition in vivo at 0.2 mg/kg [1, 5]: 6.7%; inhibition in vivo at 0.4 mg/kg [1, 5]: 11.6%; inhibition in vivo at 0.8 mg/kg [1, 5]: 12.6%; inhibition in vivo at 1.6 mg/kg [1, 5]: 20.3%; inhibition in vivo at 3.2 mg/kg [1, 5]: 30.6%; anti-inflammatory activity compared with the known indomethacin ([1]; in words, from Table 1): comparable or superior to that of the known indomethacin
3 | CC(C(=O)O)c1ccc2c(c1)SCC1CCCCC1C2=O (stereo not shown) [H, Calcium 2-(6,6a,7,8,9,10,10a,11-octahydro-11-oxodibenzo[b,e]thiepin-3-yl)propionate] | 1/3 | 1.00 | 2/3 | 1.33 | – | – | – | – | – | – | – | inhibition in vivo at 1 mg/kg [1, 4]: 31.4%; inhibition in vivo at 4 mg/kg [1, 4]: 39.5%; inhibition in vivo at 1 mg/kg [1, 5]: 26.2%; inhibition in vivo at 4 mg/kg [1, 5]: 35.7%
4 | CCOC(=O)C(C)c1ccc2c(c1)SCC1CCCCC1C2=O (stereo not shown) [I, Ethyl 2-(6,6a,7,8,9,10,10a,11-octahydro-11-oxodibenzo[b,e]thiepin-3-yl)propionate] | – | – | 0/6 | 0.33 | 3/6 | 1.00 | 42.2 | 38.3 | far less gastrointestinal ulcerogenicity than the known aspirin | – | – | Number of rats having a score of stomach ulcer of 2 or more/total number of rats used (stomach ulcer; 8 mg/kg p.o.): 0/3; Average score of stomach ulcer (stomach ulcer; 8 mg/kg p.o.): 0.00
5 | CCCCOC(=O)C(C)c1ccc2c(c1)SCC1CCCCC1C2=O (stereo not shown) [J, Butyl 2-(6,6a,7,8,9,10,10a,11-octahydro-11-oxodibenzo[b,e]thiepin-3-yl)propionate] | 0/3 | 0.33 | 3/6 | 1.33 | 3/6 | 1.50 | 31.8 | 26 | – | 21.5 | 11.5 | –
6 | CC(C(=O)OCCc1ccccc1)c1ccc2c(c1)SCC1CCCCC1C2=O (stereo not shown) [L, Phenethyl 2-(6,6a,7,8,9,10,10a,11-octahydro-11-oxodibenzo[b,e]thiepin-3-yl)propionate] | – | – | 1/9 | 0.56 | 0/6 | 0.67 | 44.8 | 39.1 | far less gastrointestinal ulcerogenicity than the known aspirin | 20.7 | 24.8 | toxicity relative to that of indomethacin (male Wistar rats): about 1/12; LD50 at 168 h (Acute lethal toxicity): 230 mg/kg
7 | CC(C(=O)OCc1ccccn1)c1ccc2c(c1)SCC1CCCCC1C2=O (stereo not shown) [O, 2-Pyridylmethyl 2-(6,6a,7,8,9,10,10a,11-octahydro-11-oxodibenzo[b,e]thiepin-3-yl)propionate] | – | – | 2/6 | 0.67 | 4/6 | 1.83 | 30.8 | 30.6 | – | 31.4 | 28.8 | –
8 | CC(C(=O)OCCc1ccccn1)c1ccc2c(c1)SCC1CCCCC1C2=O (stereo not shown) [P, 2-(2-Pyridyl)ethyl 2-(6,6a,7,8,9,10,10a,11-octahydro-11-oxodibenzo[b,e]thiepin-3-yl)propionate] | – | – | 0/6 | 0.17 | 3/6 | 0.50 | 27.6 | 25.5 | far less gastrointestinal ulcerogenicity than the known aspirin | – | – | –

Source: patent US4356186A, “Acetic acid derivatives and composition containing the same” (priority 1980, dated 1982)
